Seven molecules from US7129074B2, “Nucleoside triphosphate diphosphohydrolase (NTPDase 8) and uses thereof” (Université Laval, priority 2002, dated 2006) can be followed below.

One test addresses T1, human NTPDase8 (Homo sapiens, UniProt Q5MY95, L62P).
T1 construct: expressed in transfected cells; host or cells: COS-7
T1 sequence (Q5MY95 1-495 L62P): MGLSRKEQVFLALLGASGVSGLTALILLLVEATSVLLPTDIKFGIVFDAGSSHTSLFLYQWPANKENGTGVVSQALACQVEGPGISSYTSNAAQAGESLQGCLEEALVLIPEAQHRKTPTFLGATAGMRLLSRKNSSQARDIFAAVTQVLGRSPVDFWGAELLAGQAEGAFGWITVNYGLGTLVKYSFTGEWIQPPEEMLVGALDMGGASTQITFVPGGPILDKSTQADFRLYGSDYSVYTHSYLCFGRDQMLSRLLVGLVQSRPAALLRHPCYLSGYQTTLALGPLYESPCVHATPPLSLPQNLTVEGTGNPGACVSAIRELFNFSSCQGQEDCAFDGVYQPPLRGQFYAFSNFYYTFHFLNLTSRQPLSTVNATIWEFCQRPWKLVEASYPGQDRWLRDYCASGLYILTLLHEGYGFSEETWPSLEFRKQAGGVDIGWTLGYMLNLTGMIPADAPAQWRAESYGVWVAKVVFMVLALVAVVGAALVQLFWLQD
Briefly: Activity on protein extracts from human NTPDase8 transient transfected COS-7 cells. In kind it is biochemical. As to conditions: substrate hydrolysis by human NTPDase8 protein extracts. The procedure:
(§1) Enzyme activity in the protein fractions was determined as previously described (Sévigny et al, 1997, Biochimica Biophysica Acta 1334:73–88) Briefly, enzyme activity was measured at 37° C. in 0.5 ml of the following incubation medium: […] either with 100 mM Tris, pH 7.4 or with 100 mM MES, pH 6.4 or as indicated. Enzyme preparation was added to the incubation mixture and pre-incubated at 37° C. for 3 min. Reaction was started by the addition of 0.5 mM substrate (ATP, ADP, UTP, UDP or AMP) and stopped after 20 min by the addition of 0.125 ml of the malachite green reagent (Baykov and Evtushenko, 1988, Analytical Biochemistry 171:266–270). Activity on intact cells was carried out in similar conditions in 24 wells plates, also 40–44 h after transfection, with the addition of 145 mM NaCl to the incubation medium. The reaction was stopped by taking 0.2 ml of the reaction mixture to a new tube containing 50 μl of malachite reagent. The inorganic phosphate […] released from the hydrolysis of exogenous nucleotides was measured according to Baykov et al. (Baykov and Evtushenko, 1988, Analytical Biochemistry 171:266–270)
The activity of the protein extracts of human NTPDase8 was carried out as described previously herein and the results are shown in Table 3.

Test [1] deals with T2, mouse NTPDase8 (Mus musculus, UniProt Q8K0L2).
T2 construct: expressed in transfected cells; host or cells: COS-7
T2 sequence (Q8K0L2 1-497): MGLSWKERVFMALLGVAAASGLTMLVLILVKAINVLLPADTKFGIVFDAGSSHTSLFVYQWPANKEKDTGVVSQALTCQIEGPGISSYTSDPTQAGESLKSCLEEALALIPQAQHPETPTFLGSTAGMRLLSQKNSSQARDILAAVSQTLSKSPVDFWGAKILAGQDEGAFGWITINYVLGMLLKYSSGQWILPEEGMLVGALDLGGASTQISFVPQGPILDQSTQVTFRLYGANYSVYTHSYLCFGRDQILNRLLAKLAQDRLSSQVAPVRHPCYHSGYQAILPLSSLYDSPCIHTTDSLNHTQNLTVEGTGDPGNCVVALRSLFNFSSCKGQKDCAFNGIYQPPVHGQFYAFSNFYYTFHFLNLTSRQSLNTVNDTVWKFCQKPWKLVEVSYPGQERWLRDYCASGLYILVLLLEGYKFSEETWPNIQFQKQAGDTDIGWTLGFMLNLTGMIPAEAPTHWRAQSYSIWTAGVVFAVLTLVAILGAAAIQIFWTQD
As to the kind of experiment: HPLC separation and quantification of nucleotides hydrolysed by mouse NTPDase8. In kind it is biochemical. The procedure: For HPLC analysis, activity assays were performed in 5 mM CaCl2 and 100 mM MES, pH 6.4 as described above with the following modifications. Aliquots of 20 μL were taken at different time points from the enzymatic reaction and activity stopped by the addition of an equal volume of ice-cold 1 M perchloric acid. The samples were centrifuged for 5 min at 1000×g at 4° C. Supernatants were neutralized with 1 M KOH (4° C.), centrifuged for a subsequent 5 min at 1000×g and then lipids were removed by liquid-liquid extraction with n-heptane (5:1, v/v). An aliquot of 20 μL from the lipid extracted sample was applied to a column connected to a HPLC system.
Adenine nucleotides (ATP, ADP and AMP) were separated on a 15 cm×4.6 mm, 3 μm SUPELCOSIL™ LC-18-T column (Supelco, Bellefonte, Pa., USA) with a mobile phase composed of 25 mM TBA, 5 mM EDTA, 100 mM KH2PO4/K2HPO4, pH 7.0 and 2% methanol (v/v), at a flow-rate of 1 ml/min. […] Combined adenine and uridine nucleotide samples were analyzed with the latter column with a mobile phase composed of 16.7 mM TBA, 3.3 mM EDTA, 66.7 mM KH2PO4/K2HPO4, pH 7.0. The flow rate was 0.5 ml/min for the first 20 min and 1 ml/min up to 90 min. The nucleotides were detected by UV absorption at 260 nm and identified by comparison of the retention time and UV spectrum with the appropriate standards.

Test [2] deals with T2, mouse NTPDase8. As to the kind of experiment: NTPDase activity measurement (Pi release, malachite green) on protein extracts of COS-7 cells transfected with mouse NTPDase8. In kind it is biochemical. As to conditions: for Vmax,app / Km: substrate of NTPDase8, Woolf-Augustinsson-Hofstee plot, mean ± SEM; for Km: read-out: Km,app. Here is the method: COS-7 cells were transfected in 10 cm plates using Lipofectamine™ (Invitrogen), as previously described (Kaczmarek et al, 1996, JBC, 271:33116–33122). Briefly, cells were incubated for 5 h at 37° C. in DMEM in absence of foetal bovine serum (FBS) with 6 μg of plasmid DNA and 24 μl of Lipofectamine™ reagent. The reaction was stopped by adding an equal volume of DMEM containing 20% FBS and cell were harvested 40–44 h later. For protein preparation, transfected cells were washed three times with Tris-saline buffer at 4° C., harvested by scraping in 95 mM NaCl, 0.1 mM PMSF and 45 mM Tris, pH 7.5, and washed twice by 300×g centrifugation for 10 min at 4° C. Cells were resuspended in the harvesting buffer containing 10 μg/ml aprotinin and sonicated. Nucleus and cellular debris were discarded by another centrifugation as described above and the supernatants stored at −80° C. until used. Protein concentration was estimated by the Bradford microplate assay using bovine serum albumin (BSA) as a standard of reference (Bradford, 1976, Analyt. Biochem., 72:248–254).
as §1
Optimum pH was determined in the presence of 5 mM CaCl2 with the following buffers: 100 mM acetate (pH 4.0–5.5), 100 mM MES (pH 5.5–7.0), 100 mM Tris (pH 7.0–9.0) or 100 mM glycine pH (9.0–11.0). In the indicated experiments CaCl2 was substituted by MgCl2. To remove traces of divalent cations 1 mM EDTA plus 1 mM EGTA was added to the medium. One unit of enzyme activity corresponds to the release of 1 μmole Pi/min at 37° C. (LeBel et al., 1980, J. Biol. Chem. 255:1227–1233). All experiments were performed in triplicate with the appropriate controls.

The subject of test [3] is platelet aggregation in PRP. As to the kind of experiment: ADP-induced platelet aggregation in human PRP (optic density at 600 nm). Format: cell-based. The following applies: 4 uM ADP; PRP preincubated 25 seconds with 250 ug mNTPDase8 or 3 ug mNTPDase1 protein extracts. Here is the method: Cell membrane preparation and platelet aggregation assays were performed as described before.
PRP prepared from human donors was tested for platelet activation in the presence of exogenous ADP and protein extracts from COS cell transfected with pcDNA3.11V5-His encoding mouse NTPDase8 (mNTPDase8) or mouse (mNTPDase1) (FIG. 6). Optic density at 600 nm was recorded over a period of 8 minutes. Before the addition of 4 uM ADP, PRP was preincubated for 25 seconds with 250 ug mNTPDase8 or 3 ug mNTPDase1 protein extracts, 250 ug untransfected COS cells or without protein extract (agonist: 4 uM ADP). Note that 4 uM ADP induced high levels of platelet aggregation in control samples.

Consider `O=c1ccn([C@@H]2O[C@H](COP(=O)(O)OP(=O)(O)O)[C@@H](O)[C@H]2O)c(=O)[nH]1` [UDP], for which, on human NTPDase8, the Activity was found to be 38 ± 5 nmols Pi/min/mg. For the same molecule, the “remaining concentration after 120 min” value on mouse NTPDase8 [1] (formed from UTP incubated with NTPDase8 extracts) turned out to be 140 µM. At mouse NTPDase8 [2], the “Vmax,app” value is 1.08 ± 0.06 U/mg of protein and the Michaelis constant (Km) is 171 ± 15 µM.

At human NTPDase8, `Nc1ncnc2c1ncn2[C@@H]1O[C@H](COP(=O)(O)O)[C@@H](O)[C@H]1O` [AMP] had an Activity of 2 ± 0.6 nmols Pi/min/mg. Moreover, the “hydrolysis by NTPDase8” value at mouse NTPDase8 [2] (in the presence of Ca2+) is reported as “did not hydrolyze”.

On human NTPDase8, `O=c1ccn([C@@H]2O[C@H](COP(=O)(O)OP(=O)(O)OP(=O)(O)O)[C@@H](O)[C@H]2O)c(=O)[nH]1` [UTP] had an Activity of 271 ± 35 nmols Pi/min/mg. Also, at mouse NTPDase8 [2], the “Vmax,app” value is on record as 1.13 ± 0.02 U/mg of protein and the Km was 47 ± 1 µM.

For the molecule `Nc1ncnc2c1ncn2[C@@H]1O[C@H](COP(=O)(O)OP(=O)(O)O)[C@@H](O)[C@H]1O` [ADP], the Activity on human NTPDase8 came to 55 ± 15 nmols Pi/min/mg. Further, at mouse NTPDase8 [1] (formed from ATP incubated with NTPDase8 extracts), the “hydrolysis after 120 min” value was “completely hydrolyzed”. In addition, at mouse NTPDase8 [2], the “Vmax,app” value is recorded as 0.95 ± 0.08 U/mg of protein and the Km stood at 41 ± 6 µM.

On human NTPDase8, `Nc1ncnc2c1ncn2[C@@H]1O[C@H](COP(=O)(O)OP(=O)(O)OP(=O)(O)O)[C@@H](O)[C@H]1O` [ATP] registered an Activity of 264 ± 7 nmols Pi/min/mg. Also, at mouse NTPDase8 [2], the “Vmax,app” value is 0.82 ± 0.02 U/mg of protein and the Michaelis-Menten constant (Km) came to 13 ± 6 µM.

B1: mNTPDase8: mouse nucleoside triphosphate diphosphohydrolase 8, SEQ ID NO:1, protein extract from transfected COS-7 cells (protein)
chain: T2 sequence (Q8K0L2 1-497)
modifications: PEPTIDE (1)...(497) Mouse HTPDase8
Turning to B1, in the test with mouse NTPDase8 [2] (1 mM EDTA and 1 mM EGTA, any of the substrates tested), the “activity in absence of divalent cations” value was “no activity could be detected”. For the same molecule, in the test with mouse NTPDase8 [2] (ADPase activity, evaluated from pH 4.0 to 11.0), the “pH of optimal activity” value is around 6.4. In addition, the “pH range in which highly active” value with mouse NTPDase8 [2] (ATPase and ADPase activity, evaluated from pH 4.0 to 11.0) was 5.5–7.0. In the test with mouse NTPDase8 [2] (in the presence of Ca2+), the “ratio of hydrolysis ATP/ADP” value amounted to 1.6±0.3 and the “ratio of hydrolysis UTP/UDP” value is reported as 2.1±0.3. The “inhibition of platelet aggregation” value in test [3] worked out at 53%.

B2: mNTPDase1: mouse NTPDase1 protein extract from transfected COS cells (protein, UniProt P55772 1-510, looked up)
Ectonucleoside triphosphate …: MEDIKDSKVKRFCSKNILIILGFTSILAVIALIAVGLTQNKPLPENVKYGIVLDAGSSHTNLYIYKWPAEKENDTGVVQQLEECQVKGPGISKYAQKTDEIGAYLAECMELSTELIPTSKHHQTPVYLGATAGMRLLRMESEQSADEVLAAVSTSLKSYPFDFQGAKIITGQEEGAYGWITINYLLGRFTQEQSWLSLISDSQKQETFGALDLGGASTQITFVPQNSTIESPENSLQFRLYGEDYTVYTHSFLCYGKDQALWQKLAKDIQVSSGGVLKDPCFNPGYEKVVNVSELYGTPCTKRFEKKLPFDQFRIQGTGDYEQCHQSILELFNNSHCPYSQCAFNGVFLPPLHGSFGAFSAFYFVMDFFKKVAKNSVISQEKMTEITKNFCSKSWEETKTSYPSVKEKYLSEYCFSGAYILSLLQGYNFTDSSWEQIHFMGKIKDSNAGWTLGYMLNLTNMIPAEQPLSPPLPHSTYIGLMVLFSLLLVAVAITGLFIYSKPSYFWKEAV
modifications: COS cell extract
notes: mouse NTPDase1 protein extract from transfected COS cells
On to B2, for which, in test [3], the “inhibition of platelet aggregation” value is 100%.
